Measurements taken from patent publication US5625032A, “Selective amylin antagonist peptides and uses therefor” (Amylin Pharmaceuticals, Inc., priority 1993, dated 1997).
Peptide text beside a SMILES is read from it.

Assays:
anesthetized rats = test: Renin studies: inhibition of amylin-induced plasma renin activity; format: in vivo; settings: rat, i.v. 0.5 mg then 1.0 mg/hour; amylin 10 μg subcutaneous bolus
Method: The amylin antagonist AAP40 (SEQ ID NO:40) was evaluated in vivo for its ability to inhibit amylin-induced plasma renin activity. Male Harlan Sprague Dawley (age 77-82 days, mass 300-350 g) fasted 18-20 hours were halothane anesthetized and cannulated as described in Example 10. One and a half hours after surgery, one treatment group of 7 rats was administered amylin as a 10 μg subcutaneous bolus (t=0). Another treatment group of 6 rats was similarly treated except that they were also administered AAP40 (SEQ ID NO:40) (1 mg/mL) as a primed continuous intravenous infusion of 0.5 mg, then 1.0 mg/hour for a further 1.5 hours (t=-10 min to t=+120 min). Blood samples were collected at t=-30, 0, 30, 60 and 120 min for assessment of plasma renin activity using the INCStar GammaCoat [^125 I] plasma renin activity RIA kit (INCStar, Stillwater, Minn.; Cat. No. CA-533-553). Control rats, not administered AAP40 (SEQ ID NO:40), were injected with either saline or with primed/continuous amylin at t=0 hours, as described above.

calcitonin receptors [1] = biological target: T1, calcitonin receptors (Homo sapiens, UniProt P30988); test: Calcitonin receptor binding assay (125I salmon calcitonin, T47D cell membranes); settings: 30 pM 125I salmon calcitonin, 60 minutes, ambient temperature
T1 construct: Membranes were prepared from confluent cultures of T47D cells as described for SK-N-MC cells; endogenous in cells; host or cells: human T47D carcinoma cells (membranes)
T1 sequence (P30988 25-474): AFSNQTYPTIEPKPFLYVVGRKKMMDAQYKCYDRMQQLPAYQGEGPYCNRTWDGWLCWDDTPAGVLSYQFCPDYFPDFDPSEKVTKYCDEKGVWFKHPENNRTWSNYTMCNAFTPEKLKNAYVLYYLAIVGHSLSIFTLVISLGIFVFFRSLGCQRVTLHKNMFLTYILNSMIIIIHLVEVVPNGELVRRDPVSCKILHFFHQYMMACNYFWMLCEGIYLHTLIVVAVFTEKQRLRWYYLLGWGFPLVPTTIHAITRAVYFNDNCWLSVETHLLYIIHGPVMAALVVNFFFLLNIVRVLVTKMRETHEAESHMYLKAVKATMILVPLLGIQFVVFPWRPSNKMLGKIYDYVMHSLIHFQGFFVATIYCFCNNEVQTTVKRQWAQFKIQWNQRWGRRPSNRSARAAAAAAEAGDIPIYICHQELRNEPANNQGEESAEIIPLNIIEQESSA
Excerpt: (§1) As more fully described in Example 9, these assays, like the amylin receptor binding assay, are competition assays which measure the ability of compounds to bind specifically to certain membrane-bound receptors. Preferred sources of membrane preparations used in these assays are human SK-N-MC neuroblastoma cells and human T47D carcinoma cells to measure binding to CGRP and calcitonin receptors, respectively. Compounds being assayed compete for binding to the CGRP receptor preparations with ^125 I human αCGRP and to the calcitonin receptor preparations with ^125 I salmon calcitonin. Competition curves are analyzed as described for amylin receptor binding assays. The affinity of a compound for the amylin receptor relative to the affinity of the compound for the CGRP and calcitonin receptors determines the selectivity of the compound.
(§2) The selectivity of antagonist peptides for the amylin receptor relative to the CGRP and calcitonin receptors was determined by using two in vitro radioligand binding assays and comparing the results obtained to those acquired from the amylin receptor binding assay described in Example 7.
(§3) To determine the affinity of the antagonist peptides for calcitonin receptors, human T47D carcinoma cells were used. […] Findlay et al., Cancer Research 40:4764-4767 (1980). Membranes were prepared from confluent cultures of T47D cells as described for SK-N-MC cells. Membranes were incubated with ^125 I salmon calcitonin (labeled at ^22 tyr, 2000 Ci/mmol) at a concentration of 30 pM for 60 minutes at ambient temperature. Additional methods were similar to those described for amylin receptor binding assays in Example 2. The IC50 of AAP40 (SEQ ID NO:40) for ^125 I salmon calcitonin binding to human T47D cell membranes was 50 nM.

calcitonin receptors [2] = test: as above; set-up: species or system human; settings: ratio of calcitonin receptor IC50 to amylin receptor IC50
Excerpt: as §1, §2, §3

CGRP receptors = biological target: T2, CGRP receptors (Homo sapiens, UniProt O60894+Q16602); test: CGRP receptor binding assay (125I human αCGRP, SK-N-MC cell membranes)
T2 construct: SK-N-MC cells were homogenized in 50 mM HEPES buffer, pH 7.4, and membranes were collected by centrifugation; endogenous in cells; host or cells: human SK-N-MC neuroblastoma cells (membranes)
Excerpt: as §1, §2
To measure the affinity of the peptides for CGRP receptors, human SK-N-MC neuroblastoma cells were used. […] Van Valen, Piechot & Jurgens, Neuroscience Letters 119:195-198 (1990). SK-N-MC cells were homogenized in 50 mM HEPES buffer, pH 7.4, and membranes were collected by centrifugation for 15 min at 48,000×g. Membranes were suspended at 0.1 to 0.2 mg protein/0.2 ml assay and were incubated in 50 mM HEPES, pH 7.4 containing BSA, bacitracin, and 2 mM MgCl2 with 20 pM ^125 I human αCGRP (labeled at ^10 his, 2000 Ci/mmol) and unlabeled peptide. Additional methods were similar to those described for amylin receptor binding assays in Example 2.

T2 sequence (Q16602 23-461): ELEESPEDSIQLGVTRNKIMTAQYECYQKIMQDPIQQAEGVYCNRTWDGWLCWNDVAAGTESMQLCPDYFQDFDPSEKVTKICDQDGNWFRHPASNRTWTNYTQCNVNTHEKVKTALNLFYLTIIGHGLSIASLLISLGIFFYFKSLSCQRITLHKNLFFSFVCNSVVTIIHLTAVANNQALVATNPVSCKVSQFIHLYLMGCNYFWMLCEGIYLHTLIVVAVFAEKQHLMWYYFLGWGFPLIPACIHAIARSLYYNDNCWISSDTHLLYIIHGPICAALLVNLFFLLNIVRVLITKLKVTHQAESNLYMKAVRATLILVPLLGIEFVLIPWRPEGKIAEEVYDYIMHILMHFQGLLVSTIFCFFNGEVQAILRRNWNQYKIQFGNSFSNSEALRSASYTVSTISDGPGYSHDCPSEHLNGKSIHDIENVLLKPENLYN
T2 sequence (O60894 27-148): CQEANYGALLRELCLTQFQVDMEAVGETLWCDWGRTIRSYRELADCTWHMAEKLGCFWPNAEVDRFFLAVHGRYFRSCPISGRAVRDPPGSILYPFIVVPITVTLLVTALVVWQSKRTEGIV

## CC(=O)N[C@@H](C)C(=O)N[C@H](C(=O)N[C@@H](CCC(N)=O)C(=O)N[C@@H](CCCNC(=N)N)C(=O)N[C@@H](CC(C)C)C(=O)N[C@@H](C)C(=O)N[C@@H](CC(N)=O)C(=O)N[C@@H](CCC(=O)O)C(=O)N[C@@H](CC(C)C)C(=O)N[C@H](C(=O)N[C@@H](CCCNC(=N)N)C(=O)N[C@@H](CC(C)C)C(=O)N[C@@H](CCC(N)=O)C(=O)N[C@H](C(=O)N[C@@H](Cc1ccc(O)cc1)C(=O)N1CCC[C@H]1C(=O)N[C@@H](CCCNC(=N)N)C(=O)N[C@H](C(=O)N[C@@H](CC(N)=O)C(=O)N[C@H](C(=O)NCC(=O)N[C@@H](CO)C(=O)N[C@@H](CC(N)=O)C(=O)N[C@H](C(=O)N[C@@H](Cc1ccc(O)cc1)C(N)=O)[C@@H](C)O)C(C)C)[C@@H](C)O)[C@@H](C)O)C(C)C)[C@@H](C)O [AAP40] (Ac-ATQRLANELVRLQTYPRTNVGSNTY-NH2)
Anesthetized rats
  effect on amylin-induced plasma renin activity: effectively inhibits
Calcitonin receptors [1]
  IC50: 50 nM
Calcitonin receptors [2]
  selectivity for amylin receptors than calcitonin receptors: 100 fold
CGRP receptors; 20 pM 125I human αCGRP
  IC50: 33 nM
CGRP receptors; ratio of CGRP receptor IC50 to amylin receptor IC50
  selectivity for amylin receptors than CGRP receptors: 66 fold
